In patent US12043632B2, “6-heteroaryloxy benzimidazoles and azabenzimidazoles as JAK2 inhibitors” (Ajax Therapeutics, Inc., priority 2020, dated 2024):

Molecular target: T1, JAK2 (JH1domain-catalytic, Y1007F,Y1008F) kinase (Homo sapiens, UniProt O60674, Y1007F/Y1008F)
T1 construct: JAK2 (JH1domain-catalytic, Y1007F,Y1008F) kinase was expressed as N-terminal fusion; made in house; host or cells: transiently transfected HEK293 cells
Test: JAK2 JH1 Domain Binding Assay
Details: qPCR readout

T1 sequence (O60674 849-1124 Y1007F/Y1008F limits assumed): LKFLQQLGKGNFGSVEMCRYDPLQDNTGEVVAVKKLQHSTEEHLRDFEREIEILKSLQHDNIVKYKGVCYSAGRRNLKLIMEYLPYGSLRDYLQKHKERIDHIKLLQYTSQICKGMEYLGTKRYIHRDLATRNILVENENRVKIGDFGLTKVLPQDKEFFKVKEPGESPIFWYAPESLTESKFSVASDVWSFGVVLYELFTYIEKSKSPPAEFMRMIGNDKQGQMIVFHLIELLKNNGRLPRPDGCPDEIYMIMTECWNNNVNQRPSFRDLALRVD

Structure (SMILES) | Kd [µM]
CNc1nccn2ncc(Oc3cnc4nc(Nc5cc(C(F)(F)F)n(C6CC7(COC7)C6)n5)n(C)c4c3Cl)c12 [Example I-236, N-(1-(2-oxaspiro[3.3]heptan-6-yl)-5-(trifluoromethyl)-1H-pyrazol-3-yl)-7-chloro-1-methyl-6-((4-(methylamino)pyrazolo[1,5-a]pyrazin-3-yl)oxy)-1H-imidazo[4,5-b]pyridin-2-amine] | < 0.01
Cn1c(Nc2cc(N3CCC(O)CC3)cc(C(F)(F)F)c2)nc2ncc(Oc3cnn4ccncc34)c(Cl)c21 [Example I-237, 1-(3-((7-chloro-1-methyl-6-(pyrazolo[1,5-a]pyrazin-3-yloxy)-1H-imidazo[4,5-b]pyridin-2-yl)amino)-5-(trifluoromethyl)phenyl)piperidin-4-ol] | 0.01 to 0.05
Cn1c(Nc2cc(N3CC[C@@H](O)C3)cc(C(F)(F)F)c2)nc2ncc(Oc3cnn4ccncc34)c(Cl)c21 [Example I-238, (R)-1-(3-((7-chloro-1-methyl-6-(pyrazolo[1,5-a]pyrazin-3-yloxy)-1H-imidazo[4,5-b]pyridin-2-yl)amino)-5-(trifluoromethyl)phenyl)pyrrolidin-3-ol] | < 0.01
CNc1nccn2ncc(Oc3cnc4nc(Nc5cc(CN6CC(F)C6)cc(C(F)(F)F)c5)n(C)c4c3Cl)c12 [Example I-246, 7-chloro-N-(3-((3-fluoroazetidin-1-yl)methyl)-5-(trifluoromethyl)phenyl)-1-methyl-6-((4-(methylamino)pyrazolo[1,5-a]pyrazin-3-yl)oxy)-1H-imidazo[4,5-b]pyridin-2-amine] | 0.01 to 0.05
CNc1nccn2ncc(Oc3cnc4nc(Nc5cc(CN6CC(OC)C6)cc(C(F)(F)F)c5)n(C)c4c3Cl)c12 [Example I-247, 7-chloro-N-(3-((3-methoxyazetidin-1-yl)methyl)-5-(trifluoromethyl)phenyl)-1-methyl-6-((4-(methylamino)pyrazolo[1,5-a]pyrazin-3-yl)oxy)-1H-imidazo[4,5-b]pyridin-2-amine] | 0.01 to 0.05
CNc1nccn2ncc(Oc3cnc4nc(Nc5cc(CN6CC[C@H](OC)C6)cc(C(F)(F)F)c5)n(C)c4c3Cl)c12 [Example I-249, (S)-7-chloro-N-(3-((3-methoxypyrrolidin-1-yl)methyl)-5-(trifluoromethyl)phenyl)-1-methyl-6-((4-(methylamino)pyrazolo[1,5-a]pyrazin-3-yl)oxy)-1H-imidazo[4,5-b]pyridin-2-amine] | 0.01 to 0.05
CNc1nccn2ncc(Oc3cnc4nc(Nc5cc(CN6CC[C@@H](OC)C6)cc(C(F)(F)F)c5)n(C)c4c3Cl)c12 [Example I-250, (R)-7-chloro-N-(3-((3-methoxypyrrolidin-1-yl)methyl)-5-(trifluoromethyl)phenyl)-1-methyl-6-((4-(methylamino)pyrazolo[1,5-a]pyrazin-3-yl)oxy)-1H-imidazo[4,5-b]pyridin-2-amine] | 0.01 to 0.05
CNc1nccn2ncc(Oc3cnc4nc(Nc5cc(C(C)(C)C)n([C@H]6CCN(C)C6)n5)n(C)c4c3Cl)c12 [Example I-251, (S)—N-(5-(tert-butyl)-1-(1-methylpyrrolidin-3-yl)-1H-pyrazol-3-yl)-7-chloro-1-methyl-6-((4-(methylamino)pyrazolo[1,5-a]pyrazin-3-yl)oxy)-1H-imidazo[4,5-b]pyridin-2-amine] | < 0.01
CNc1nccn2ncc(Oc3cnc4nc(Nc5cc(C(C)(C)C)n([C@@H]6CCN(C)C6)n5)n(C)c4c3Cl)c12 [Example I-252, (R)—N-(5-(tert-butyl)-1-(1-methylpyrrolidin-3-yl)-1H-pyrazol-3-yl)-7-chloro-1-methyl-6-((4-(methylamino)pyrazolo[1,5-a]pyrazin-3-yl)oxy)-1H-imidazo[4,5-b]pyridin-2-amine] | 0.01 to 0.05
Cc1nc(Nc2nc3ncc(Oc4cnn5ccncc45)c(Cl)c3n2C)nc(C)c1C1CCCC1 [Example I-253, 7-chloro-N-(5-cyclopentyl-4,6-dimethylpyrimidin-2-yl)-1-methyl-6-(pyrazolo[1,5-a]pyrazin-3-yloxy)-1H-imidazo[4,5-b]pyridin-2-amine] | < 0.01
CNc1nccn2ncc(Oc3cnc4nc(Nc5cc(C6CCN(C)CC6)cc(C(F)(F)F)c5)n(C)c4c3Cl)c12 [Example I-254, 7-chloro-1-methyl-6-((4-(methylamino)pyrazolo[1,5-a]pyrazin-3-yl)oxy)-N-(3-(1-methylpiperidin-4-yl)-5-(trifluoromethyl)phenyl)-1H-imidazo[4,5-b]pyridin-2-amine] | < 0.01
Cn1c(Nc2cc(CN3CCC3)cc(C(F)(F)F)c2)nc2ncc(Oc3cnn4ccncc34)c(Cl)c21 [Example I-256, N-(3-(azetidin-1-ylmethyl)-5-(trifluoromethyl)phenyl)-7-chloro-1-methyl-6-(pyrazolo[1,5-a]pyrazin-3-yloxy)-1H-imidazo[4,5-b]pyridin-2-amine] | < 0.01
Cn1c(Nc2cc(CN3CC(O)C3)cc(C(F)(F)F)c2)nc2ncc(Oc3cnn4ccncc34)c(Cl)c21 [Example I-258, 1-(3-((7-chloro-1-methyl-6-(pyrazolo[1,5-a]pyrazin-3-yloxy)-1H-imidazo[4,5-b]pyridin-2-yl)amino)-5-(trifluoromethyl)benzyl)azetidin-3-ol] | < 0.01

The remaining lines, values ahead:

Kd [µM] | Structure (SMILES)
0.01 to 0.05 | CNc1nccn2ncc(Oc3cnc4nc(Nc5cc(C(F)(F)F)c(CN(C)C)cc5F)n(C)c4c3Cl)c12 [Example I-235, 7-chloro-N-(4-((dimethylamino)methyl)-2-fluoro-5-(trifluoromethyl)phenyl)-1-methyl-6-((4-(methylamino)pyrazolo[1,5-a]pyrazin-3-yl)oxy)-1H-imidazo[4,5-b]pyridin-2-amine]
0.05 to 1 | CNc1nccn2ncc(Oc3cnc4nc(Nc5cc6c(c(C(F)(F)F)c5)C(C)(C)N(C)C6=O)n(C)c4c3C#N)c12 [Example I-240, 1-methyl-6-((4-(methylamino)pyrazolo[1,5-a]pyrazin-3-yl)oxy)-2-((1,1,2-trimethyl-3-oxo-7-(trifluoromethyl)isoindolin-5-yl)amino)-1H-imidazo[4,5-b]pyridine-7-carbonitrile]
< 0.01 | CNc1nccn2ncc(Oc3cnc4nc(Nc5cc(OC[C@@H]6CCCN6C)cc(C(F)(F)F)c5)n(C)c4c3Cl)c12 [Example I-241, (S)-7-chloro-1-methyl-6-((4-(methylamino)pyrazolo[1,5-a]pyrazin-3-yl)oxy)-N-(3-((1-methylpyrrolidin-2-yl)methoxy)-5-(trifluoromethyl)phenyl)-1H-imidazo[4,5-b]pyridin-2-amine]
< 0.01 | CNc1nccn2ncc(Oc3cnc4nc(Nc5cc(OC[C@H]6CCCN6C)cc(C(F)(F)F)c5)n(C)c4c3Cl)c12 [Example I-242, (R)-7-chloro-1-methyl-6-((4-(methylamino)pyrazolo[1,5-a]pyrazin-3-yl)oxy)-N-(3-((1-methylpyrrolidin-2-yl)methoxy)-5-(trifluoromethyl)phenyl)-1H-imidazo[4,5-b]pyridin-2-amine]
< 0.01 | CN1CCC[C@H]1COc1cc(Nc2nc3ncc(Oc4cnn5ccncc45)c(Cl)c3n2C)cc(C(F)(F)F)c1 [Example I-243, (S)-7-chloro-1-methyl-N-(3-((1-methylpyrrolidin-2-yl)methoxy)-5-(trifluoromethyl)phenyl)-6-(pyrazolo[1,5-a]pyrazin-3-yloxy)-1H-imidazo[4,5-b]pyridin-2-amine]
< 0.01 | CN1CCC[C@@H]1COc1cc(Nc2nc3ncc(Oc4cnn5ccncc45)c(Cl)c3n2C)cc(C(F)(F)F)c1 [Example I-244, (R)-7-chloro-1-methyl-N-(3-((1-methylpyrrolidin-2-yl)methoxy)-5-(trifluoromethyl)phenyl)-6-(pyrazolo[1,5-a]pyrazin-3-yloxy)-1H-imidazo[4,5-b]pyridin-2-amine]
< 0.01 | Cn1cc(C(F)(F)F)cc(Nc2nc3ncc(Oc4cnn5ccnc(NCCN6CCOCC6)c45)c(Cl)c3n2C)c1=O [Example I-248, 3-((7-chloro-1-methyl-6-((4-((2-morpholinoethyl)amino)pyrazolo[1,5-a]pyrazin-3-yl)oxy)-1H-imidazo[4,5-b]pyridin-2-yl)amino)-1-methyl-5-(trifluoromethyl)pyridin-2(1H)-one]
< 0.01 | CNc1nccn2ncc(Oc3cnc4nc(Nc5cc(CN(C)C)cc(C(F)(F)F)c5)n(C)c4c3Cl)c12 [Example I-255, 7-chloro-N-(3-((dimethylamino)methyl)-5-(trifluoromethyl)phenyl)-1-methyl-6-((4-(methylamino)pyrazolo[1,5-a]pyrazin-3-yl)oxy)-1H-imidazo[4,5-b]pyridin-2-amine]
0.01 to 0.05 | CNc1nccn2ncc(Oc3cnc4nc(Nc5cc(OC6CN(C)C6)cc(C(F)(F)F)c5)n(C)c4c3Cl)c12 [Example I-259, 7-chloro-1-methyl-6-((4-(methylamino)pyrazolo[1,5-a]pyrazin-3-yl)oxy)-N-(3-((1-methylazetidin-3-yl)oxy)-5-(trifluoromethyl)phenyl)-1H-imidazo[4,5-b]pyridin-2-amine]
< 0.01 | Cn1cc(C(F)(F)F)cc(Nc2nc3ncc(Oc4cnc5[nH]ncc5c4)c(C#N)c3n2C)c1=O [Example I-260, 6-((1H-pyrazolo[3,4-b]pyridin-5-yl)oxy)-1-methyl-2-((1-methyl-2-oxo-5-(trifluoromethyl)-1,2-dihydropyridin-3-yl)amino)-1H-imidazo[4,5-b]pyridine-7-carbonitrile]
< 0.01 | Cn1cc(C(F)(F)F)cc(Nc2nc3ncc(Oc4cnc5[nH]ncc5c4)c(Cl)c3n2C)c1=O [Example I-261, 3-((6-((1H-pyrazolo[3,4-b]pyridin-5-yl)oxy)-7-chloro-1-methyl-1H-imidazo[4,5-b]pyridin-2-yl)amino)-1-methyl-5-(trifluoromethyl)pyridin-2(1H)-one]
< 0.01 | CNc1nccn2ncc(Oc3cnc4nc(Nc5cc(CN6CCC6)cc(C(F)(F)F)c5)n(C)c4c3Cl)c12 [Example I-263, N-(3-(azetidin-1-ylmethyl)-5-(trifluoromethyl)phenyl)-7-chloro-1-methyl-6-((4-(methylamino)pyrazolo[1,5-a]pyrazin-3-yl)oxy)-1H-imidazo[4,5-b]pyridin-2-amine]
